From patent US9125388B2, “Biological control” (Isis Innovation Limited, priority 1999, dated 2015)

Experiments:
[1] = tested on: Actin5C tTa^(B, C, E) × tRe Msl-1^MPu(A, B); test: Single chromosome crosses at 25° C., adult progeny by sex; type: in vivo, Drosophila melanogaster
Experimental: (§1) In “single chromosome crosses” at 25° C., ten to fifteen virgin females homozygous for the tTA construct and five to ten young males homozygous for the tRe construct were placed on food containing or lacking a tetracycline supplement.

[2] = tested on: Actin5C tTa^(B, C, E) × tRe Msl-2^Nopu (B, C, D); test: as above; type: in vivo, Drosophila melanogaster
Experimental: as §1

[3] = tested on: Actin5C tTa^(B, C, E) × tRe Ras64B^V12(B, C); test: as above; type: in vivo, Drosophila melanogaster
Experimental: as §1

[4] = tested on: Hsp26 tTa^(A) × tRe MSl-1^Mpu(A, B,); test: as above; type: in vivo, Drosophila melanogaster
Experimental: as §1

[5] = tested on: Hsp26 tTa^(A) × tRe Ras64B^V12(B, C,); test: as above; type: in vivo, Drosophila melanogaster
Experimental: as §1

[6] = tested on: Stwl tTa^(A, B, C) × tRe Msl-1^Mpu(A, B); test: as above; type: in vivo, Drosophila melanogaster
Experimental: as §1

[7] = tested on: Stwl tTa^(A, B, C) × tRe Msl-2^Nopu(B, C, D); test: as above; type: in vivo, Drosophila melanogaster
Experimental: as §1

[8] = tested on: Stwl tTa^(A, B, C) × tRe Ras64B^V12(B, C); test: as above; type: in vivo, Drosophila melanogaster
Experimental: as §1

[9] = tested on: Sxlpe tTa^(A, B, C, F) × tRe Msl-1^Mpu(A, B); test: as above; type: in vivo, Drosophila melanogaster
Experimental: as §1

[10] = tested on: Sxlpe tTa^(A, B, C, F) × tRe Msl-2^Nopu(B, C, D); test: as above; type: in vivo, Drosophila melanogaster
Experimental: as §1

[11] = tested on: Sxlpe tTa^(A, B, C, F) × tRe Ras64B^V12(B, C); test: as above; type: in vivo, Drosophila melanogaster
Experimental: as §1

[12] = tested on: Yp3 tTa^(A) × tRe Msl-1^Mpu(A, B,); test: as above; type: in vivo, Drosophila melanogaster
Experimental: as §1

[13] = tested on: Yp3 tTa^(A) × tRe Msl-2^Nopu(A, B,); test: as above; type: in vivo, Drosophila melanogaster
Experimental: as §1

[14] = tested on: Yp3 tTa^(A) × tRe Ras64B^V12(B, C,); test: as above; type: in vivo, Drosophila melanogaster
Experimental: as §1

[15] = tested on: (Male) Sxlp^e tTa^(A) tRe lacZ^(I) × C(1)DX (Female); test: Reporter crosses at 25° C., embryos stained for lacZ; type: in vivo, Drosophila melanogaster
Excerpt: As with “single chromosome crosses”, ten to fifteen virgin females homozygous for the tTA construct and five to ten young males homozygous for the tRe construct were placed on food containing or lacking a tetracycline supplement.
C(1)DX is a compound X chromosome; effectively two X chromosomes joined together. The X chromosome from males crossed to C(1)DX females is therefore inherited by the sons, rather than the daughters.

[16] = tested on: (Male) Sxlp^e tTa^(A) × tRe lacZ^(III) (Female); test: as above

## CN(C)[C@@H]1C(O)=C(C(N)=O)C(=O)[C@@]2(O)C(O)=C3C(=O)c4c(O)cccc4[C@@](C)(O)[C@H]3C[C@@H]12 [Tetracycline, tetracycline]
[1]; Tetracycline 0.1 μg/ml in food
  Female progeny Total: 412
  Male progeny Total: 402
[1]; Tetracycline 1 μg/ml in food
  Female progeny Total: 321
  Male progeny Total: 351
[1]; Tetracycline 5 μg/ml in food
  Female progeny Total: 386
  Male progeny Total: 401
[2]; Tetracycline 0.1 μg/ml in food
  Female progeny Total: 548
  Male progeny Total: 637
[2]; Tetracycline 1 μg/ml in food
  Female progeny Total: 590
  Male progeny Total: 549
[2]; Tetracycline 5 μg/ml in food
  Female progeny Total: 615
  Male progeny Total: 522
[3]; Tetracycline 0.1 μg/ml in food
  Female progeny Total: 361
  Male progeny Total: 372
[3]; Tetracycline 1 μg/ml in food
  Female progeny Total: 427
  Male progeny Total: 383
[3]; Tetracycline 5 μg/ml in food
  Female progeny Total: 375
  Male progeny Total: 400
[4]; Tetracycline 0.1 μg/ml in food
  Female progeny Total: 328
  Male progeny Total: 368
[4]; Tetracycline 1 μg/ml in food
  Female progeny Total: 310
  Male progeny Total: 343
[4]; Tetracycline 5 μg/ml in food
  Female progeny Total: 313
  Male progeny Total: 347
[5]; Tetracycline 0.1 μg/ml in food
  Female progeny Total: 235
  Male progeny Total: 210
[5]; Tetracycline 1 μg/ml in food
  Female progeny Total: 199
  Male progeny Total: 274
[5]; Tetracycline 5 μg/ml in food
  Female progeny Total: 156
  Male progeny Total: 154
[6]; Tetracycline 0.1 μg/ml in food
  Female progeny Total: 211
  Male progeny Total: 336
[6]; Tetracycline 1 μg/ml in food
  Female progeny Total: 236
  Male progeny Total: 257
[6]; Tetracycline 5 μg/ml in food
  Female progeny Total: 223
  Male progeny Total: 291
[7]; Tetracycline 0.1 μg/ml in food
  Female progeny Total: 436
  Male progeny Total: 491
[7]; Tetracycline 1 μg/ml in food
  Female progeny Total: 439
  Male progeny Total: 490
[7]; Tetracycline 5 μg/ml in food
  Female progeny Total: 434
  Male progeny Total: 481
[8]; Tetracycline 0.1 μg/ml in food
  Female progeny Total: 317
  Male progeny Total: 315
[8]; Tetracycline 1 μg/ml in food
  Female progeny Total: 307
  Male progeny Total: 328
[8]; Tetracycline 5 μg/ml in food
  Female progeny Total: 271
  Male progeny Total: 335
[9]; Tetracycline 0.1 μg/ml in food
  Female progeny Total: 296
  Male progeny Total: 520
[9]; Tetracycline 1 μg/ml in food
  Female progeny Total: 326
  Male progeny Total: 473
[9]; Tetracycline 5 μg/ml in food
  Female progeny Total: 304
  Male progeny Total: 535
[10]; Tetracycline 0.1 μg/ml in food
  Female progeny Total: 647
  Male progeny Total: 562
[10]; Tetracycline 1 μg/ml in food
  Female progeny Total: 644
  Male progeny Total: 674
[10]; Tetracycline 5 μg/ml in food
  Female progeny Total: 615
  Male progeny Total: 742
[11]; Tetracycline 0.1 μg/ml in food
  Female progeny Total: 379
  Male progeny Total: 434
[11]; Tetracycline 1 μg/ml in food
  Female progeny Total: 386
  Male progeny Total: 389
[11]; Tetracycline 5 μg/ml in food
  Female progeny Total: 383
  Male progeny Total: 375
[12]; Tetracycline 0.1 μg/ml in food
  Female progeny Total: 336
  Male progeny Total: 379
[12]; Tetracycline 1 μg/ml in food
  Female progeny Total: 319
  Male progeny Total: 347
[12]; Tetracycline 5 μg/ml in food
  Female progeny Total: 307
  Male progeny Total: 348
[13]; Tetracycline 0.1 μg/ml in food
  Female progeny Total: 268
  Male progeny Total: 248
[13]; Tetracycline 1 μg/ml in food
  Female progeny Total: 324
  Male progeny Total: 362
[13]; Tetracycline 5 μg/ml in food
  Female progeny Total: 349
  Male progeny Total: 386
[14]; Tetracycline 0.1 μg/ml in food
  Female progeny Total: 322
  Male progeny Total: 352
[14]; Tetracycline 1 μg/ml in food
  Female progeny Total: 342
  Male progeny Total: 376
[14]; Tetracycline 5 μg/ml in food
  Female progeny Total: 316
  Male progeny Total: 354
[15]; Tetracycline 0.1 μg/ml in food
  LacZ negative Total: 708
  LacZ positive Total: 0
[15]; Tetracycline 1 μg/ml in food
  LacZ negative Total: 737
  LacZ positive Total: 0
[15]; Tetracycline 5 μg/ml in food
  LacZ negative Total: 683
  LacZ positive Total: 0
[16]; Tetracycline 0.1 μg/ml in food
  LacZ negative Total: 518
  LacZ positive Total: 0
[16]; Tetracycline 1 μg/ml in food
  LacZ negative Total: 707
  LacZ positive Total: 0
[16]; Tetracycline 5 μg/ml in food
  LacZ negative Total: 702
  LacZ positive Total: 0
